What was measured:
[1] = ChromLogD (chromatographic); format: physicochemical; conditions: HPLC on Hypersil GOLD-C18 column, pH 7.4
Description: (§1) For the permeabilised-cell assay, 10 µL of digitonin was added, and plates were incubated in darkness for 5 minutes to allow permeabilisation. In each well 10 µL of the 10x PROTAC and vehicle control dilutions were dispensed. A 100x NanoBRET tracer solution (50 µM for VHL permeabilised-cell assay) was prepared with 100% DMSO, then diluted to a 20x solution with tracer dilution buffer. A 5 µL volume of tracer was dispensed into each well at a final concentration of 0.5 µM, and the plate was mixed at 300 RPM for 15 seconds. Finally, 50 µL of a 3x substrate solution (8.8 µL NanoBRET Nano-Glo substrate and 3,500 µL Opti-MEM) was added, and plates were incubated for 1 minute at room temperature before reading on a GloMax Discover as […]
HiBiT Lytic Assay with Zosuquidar Co-treatment
A modified HiBiT lytic assay was used to assess the activity of zosuquidar on the BET degradation. […]
(§2) Luminescence was measured using the GloMax® Multiplex Luminescence and Fluorescence Protocol for 96-well plates. The luminescence signal for each well was normalised to the fluorescence signal and further normalised to the mean values from iPrOH-treated controls, then expressed as a ratio relative to the vehicle control. Curve fitting and DC50 values were determined in GraphPad Prism v.10.0.3 using nonlinear regression with a three-parameter logistic model to calculate DC50 values.
The stock solution of each test item was prepared from a 10mM stock in iPrOH, which was further diluted 1:50 with […] to obtain a 0.2 mM solution (4 µL of the test item stock solution is diluted with 196 µL DMSO) in insert vials. The samples were analysed on an HPLC system equipped with a HPLC-ThermoScientific Hypersil GOLD-C18 column (2.1 x 50 mm, 1.9 µm) and by MS detection using electrospray ionization (ESI) and Atmospheric Pressure Chemical Ionization (APCI) on a Shimadzu LCMS 2050. […]
(§3) of 1 mL/min and a column temperature of 40 °C. […] Data were analysed with Shimadzu Open Solution Data Browser to obtain the RTs of the peak for each individual compound and standards. […]

[2] = LogD7.4 shake flask (octanol/phosphate buffer); format: physicochemical; conditions: octanol/potassium phosphate buffer, pH 7.4
Excerpt: The modulation of lipophilicity could play a critical role in optimizing PROTACs. We thus utilized traditionally measured LogD values from shake flask experiments alongside chromatographically assessed ChromLogD values.[72] […] By incorporating ferrocene, permeability may be improved due to the feature of promoting IMHB-mediated compact conformations, while also balancing the lipophilicity of the polar ligand/PEG linkers. However, while sufficient lipophilicity is required for passive uptake over the cell membrane, it may also drive poor aqueous solubility.[73]
as §1
HiBiT Lytic Assay with Zosuquidar Co-treatment […]
as §2, with “values. […]” for “values.”
as §3
ChromLogD values for the compounds were then calculated based on the regression curve. […]

chromatographic logD [1]	logD [2]	Compound
3.7	3.3	Cc1ncsc1-c1ccc(CNC(=O)[C@@H]2C[C@@H](O)CN2C(=O)[C@@H](NC(=O)CCCCCOCCOCCCCCC(=O)Nc2cccc3c2C(=O)N(C2CCC(=O)NC2=O)C3=O)C(C)(C)C)cc1 (stereo partly shown) [14a]
3.2	2.9	Cc1ncsc1-c1ccc(CNC(=O)[C@@H]2C[C@@H](O)CN2C(=O)[C@@H](NC(=O)COCCOCCOCCOCCOCCOCC(=O)N[C@H](C(=O)N2C[C@H](O)C[C@H]2C(=O)NCc2ccc(-c3scnc3C)cc2)C(C)(C)C)C(C)(C)C)cc1 [CM11]

From publication PMC12022980, “Rational Design of PROTAC Linkers Featuring Ferrocene as a Molecular Hinge to Enable Dynamic Conformational Changes” (Journal of the American Chemical Society, 2025)
